Measurements from article PMC8480776, “Selenium Derivatives as Promising Therapy for Chagas Disease: In Vitro and In Vivo Studies” (ACS Infectious Diseases, 2021).
Read-outs that look alike come from different tables or passages of the source.

Legend:
[1] = test system: T. cruzi epimastigotes, Arequipa strain; test: Screening against extracellular epimastigotes, Arequipa strain; type: cell-based, Trypanosoma cruzi
[2] = test system: T. cruzi epimastigotes, SN3 strain; test: Screening against extracellular epimastigotes, SN3 strain; type: cell-based, Trypanosoma cruzi
[3] = test system: T. cruzi epimastigotes, Tulahuen strain; test: Screening against extracellular epimastigotes, Tulahuen strain; type: cell-based, Trypanosoma cruzi
[4] = test system: Vero cells; test: Cytotoxicity test on Vero cells; type: cell-based; details: Chlorocebus sabaeus, 48 h + 24 h resazurin, read-out: Toxicity IC50 Vero cell
[5] = test system: T. cruzi amastigotes, Arequipa strain; test: Screening against intracellular amastigotes, Arequipa strain; type: cell-based, Trypanosoma cruzi
[6] = test system: T. cruzi amastigotes, SN3 strain; test: Screening against intracellular amastigotes, SN3 strain; type: cell-based, Trypanosoma cruzi
[7] = test system: T. cruzi amastigotes, Tulahuen strain; test: Screening against intracellular amastigotes, Tulahuen strain; type: cell-based, Trypanosoma cruzi
[8] = test system: T. cruzi trypomastigotes, Arequipa strain; test: Screening against bloodstream trypomastigotes, Arequipa strain; type: cell-based, Trypanosoma cruzi
[9] = test system: T. cruzi trypomastigotes, SN3 strain; test: Screening against bloodstream trypomastigotes, SN3 strain; type: cell-based, Trypanosoma cruzi
[10] = test system: T. cruzi trypomastigotes, Tulahuen strain; test: Screening against bloodstream trypomastigotes, Tulahuen strain; type: cell-based, Trypanosoma cruzi
[11] = test system: Vero cells infected with T. cruzi Arequipa strain; test: Infection rate in Vero cells (infected cells), Arequipa strain; type: cell-based; details: Trypanosoma cruzi, 72 h of treatment
[12] = test system: T. cruzi Arequipa strain; test: In vivo trypanocidal activity on BALB/c mice (acute and chronic Chagas disease); parameters: species or system Trypanosoma cruzi
Procedure: (§1) Female BALB/c mice aged 10–12 weeks and with a size of 20–24 g were divided into five groups (n = 3 per group): 0, negative control group (uninfected and untreated mice); I, positive control group (infected and untreated mice); II, BZN group (infected mice treated with BZN); III, 26 group (infected mice treated with 26); and IV, 28 group (infected mice treated with 28).
Mice were infected by intraperitoneal injection of 5 × 10^5 BTs of T. cruzi Arequipa strain per mouse in 200 μL PBS.[42] Subsequently, the treatment was intraperitoneally administered (∼200 μL) once daily for 5 consecutive days.
(§2) The tested selenocompounds and BZN were prepared at 2 mg·mL^–1 in an aqueous suspension vehicle containing 5% (v/v) DMSO and 0.5% (w/v) hydroxypropyl methylcellulose, as previously reported.[52] Compounds (20 mg·kg^–1 per day) were administered for 5 consecutive days (total dosages of 100 mg·kg^–1), and vehicle only was administered in the negative and positive control groups. Treatments began when the infection was confirmed (9 dpi) for acute-phase-treated mice, and when it was established that the animals moved into the chronic phase (100 dpi, for chronic-phase-treated mice; Scheme 1).
[…]. Parasitemia was expressed as parasites·mL^–1.
Immunosuppression was performed by intraperitoneal injection of three doses of 200 mg·kg^–1 of ISOPAC CP at 3–4 day intervals (Scheme 1), as previously reported.[53] Mice were closely monitored for side effects or for secondary infections due to immunosuppression. Within 7 days after the last CP injection, parasitemia reactivation was determined by counting BTs according the procedure described for parasitemia in the acute phase.[42]
On 145 dpi, the mice were euthanized using CO2, followed by exsanguination via cardiac puncture, and blood was collected. […]. In addition, spleens were weighed to assess splenomegaly.[42]
DNA extraction of the post-mortem organs/tissues was performed using Wizard Genomic DNA Purification Kit,[41] and the extracted DNA was subjected to amplification by PCR based on the spliced leader (SL) intergenic region sequence of T. cruzi (for detailed description, see literature reported previously).[55] Finally, the PCR products were resolved by electrophoresis on a 2% agarose gel (containing GelRed nucleic gel stain) for 90 min at 90 V.
Circulating antibodies in serum against both antigens were quantitatively evaluated in triplicate by the ELISA test in 96-well plates using diluted serum samples (1:80 in PBS), as previously described.[41]

[13] = type: in vivo, BALB/c mice; details: variation vs control
Procedure: as §1, §2
Serum samples obtained from blood in several days post-infection (Scheme 1) were sent to the Biochemical Service (University of Granada) to measure a series of biochemical parameters with the commercial Cromakit using a clinical chemistry analyzer (BS-200, Shenzhen Mindray Biomedical Electronics Co., LTD), as previously described.[41]

[14] = test system: epimastigotes of T. cruzi Arequipa strain; test: Flow cytometry analysis of nucleic acid levels (acridine orange); type: cell-based, Trypanosoma cruzi; details: IC25 concentrations, 72 h
[15] = test system: Trypanosoma cruzi Fe-SOD; test: SOD enzymatic inhibition, Fe-SOD; type: biochemical
[16] = molecular target: T1, human erythrocytes CuZn-SOD (Homo sapiens, UniProt P00441); test: SOD enzymatic inhibition, CuZn-SOD; type: biochemical
T1 construct: commercial copper/zinc superoxide dismutase (Cu/Zn-SOD) from human erythrocytes (Sigma-Aldrich); purchased Sigma-Aldrich; host or cells: human erythrocytes (natural source)

[17] = IC50 Vero cells/IC50 epimastigotes
[18] = IC50 Vero cells/IC50 amastigotes
[19] = IC50 Vero cells/IC50 trypomastigotes
[20] = 20 mg·kg–1 per day i.p. 5 days from 9 dpi
[21] = 20 mg·kg–1 per day i.p. 5 days from 100 dpi
[22] = 20 mg·kg–1 per day i.p. for 5 days from 9 dpi
[23] = treatment in acute phase, 15th dpi (2 days after treatment)
[24] = treatment in acute phase, necropsy day
[25] = treatment in chronic phase, 106th dpi (2 days after treatment)
[26] = treatment in chronic phase, necropsy day

T1 sequence (P00441 whole entry): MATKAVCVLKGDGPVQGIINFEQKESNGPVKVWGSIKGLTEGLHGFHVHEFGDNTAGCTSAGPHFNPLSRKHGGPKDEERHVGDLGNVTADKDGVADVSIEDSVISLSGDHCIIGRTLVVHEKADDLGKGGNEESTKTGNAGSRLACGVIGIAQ

In the case of `N#C[Se]c1ccc(NC(=O)c2ccc(C(F)(F)F)cc2)cc1` [Compound 26], the “Selectivity index (SI), epimastigotes, Arequipa strain” value [1, 17] is reported as 84, the IC50 ([1]; Trypanosoma cruzi, 48 h + 24 h resazurin, read-out: Activity IC50, epimastigote form, Arequipa strain) is reported as 1.6 ± 0.3 µM and the “Selectivity index (SI), epimastigotes, SN3 strain” value [2, 17] is reported as 64. For the same compound, the IC50 ([2]; Trypanosoma cruzi, 48 h + 24 h resazurin, read-out: Activity IC50, epimastigote form, SN3 strain) was 2.1 ± 0.3 µM, the “Selectivity index (SI), epimastigotes, Tulahuen strain” value [3, 17] was 52 and the IC50 ([3]; Trypanosoma cruzi, TULAHUEN, 48 h + 24 h resazurin, read-out: Activity IC50, epimastigote form, Tulahuen strain) was 2.6 ± 0.4 µM. The CC50 [4] was 134 ± 11.3 µM, the “selectivity index (SI), Arequipa strain, am. forms” value [5, 18] was 25 and the IC50 ([5]; Trypanosoma cruzi, amastigotes in Vero cells, 72 h, read-out: activity IC50, Arequipa strain, am. forms) was 5.4 ± 0.7 µM. For the same compound, the “selectivity index (SI), SN3 strain, am. forms” value [6, 18] was 34, the IC50 ([6]; Trypanosoma cruzi, amastigotes in Vero cells, 72 h, read-out: activity IC50, SN3 strain, am. forms) was 3.9 ± 0.5 µM and the “selectivity index (SI), Tulahuen strain, am. forms” value [7, 18] was 27. For the same compound, the IC50 ([7]; Trypanosoma cruzi, TULAHUEN, amastigotes in Vero cells, 72 h, read-out: activity IC50, Tulahuen strain, am. forms) was 4.9 ± 0.3 µM, the “selectivity index (SI), Arequipa strain, trypom. forms” value [8, 19] was 56 and the IC50 ([8]; Trypanosoma cruzi, bloodstream trypomastigotes, 24 h + 4 h resazurin, read-out: activity IC50, Arequipa strain, trypom. forms) was 2.4 ± 0.3 µM. For the same compound, the “selectivity index (SI), SN3 strain, trypom. forms” value [9, 19] was 52, the IC50 ([9]; Trypanosoma cruzi, bloodstream trypomastigotes, 24 h + 4 h resazurin, read-out: activity IC50, SN3 strain, trypom. forms) was 2.5 ± 0.3 µM and the “selectivity index (SI), Tulahuen strain, trypom. forms” value [10, 19] was 46. The IC50 ([10]; Trypanosoma cruzi, TULAHUEN, bloodstream trypomastigotes, 24 h + 4 h resazurin, read-out: activity IC50, Tulahuen strain, trypom. forms) was 2.9 ± 0.2 µM, the IC50 [11] was 22.4 µM and the “anti-T. cruzi IgG levels (ELISA), acute phase treatment” value [12, 20] was “lower IgG values than the treated with BZN at the beginning of the treatment”. For the same compound, the “splenomegaly reduction in comparison with untreated mice, acute phase treatment” value [12, 20] was 49%, the “parasitaemia reactivation after immunosuppression, acute phase treatment” value ([12]; 20 mg·kg–1 per day i.p. 5 days from 9 dpi, compared to untreated group) was “approximately 65%” and the “parasite-free organs/tissues by PCR, acute phase treatment” value ([12]; 20 mg·kg–1 per day i.p. 5 days from 9 dpi, necropsy 145 dpi) was 42.9%. For the same compound, the “anti-T. cruzi IgG levels (ELISA), chronic phase treatment” value [12, 21] was “similar”, the “splenomegaly reduction in comparison with untreated mice, chronic phase treatment” value [12, 21] was 38% and the “parasitaemia reactivation after immunosuppression, chronic phase treatment” value ([12]; 20 mg·kg–1 per day i.p. 5 days from 100 dpi, compared to untreated group) was ~60%. For the same compound, the “parasite-free organs/tissues by PCR, chronic phase treatment” value ([12]; 20 mg·kg–1 per day i.p. 5 days from 100 dpi, necropsy 145 dpi) was 42.9%, the “day at which parasitaemia was resolved” value [12, 22] was 48 dpi and the “parasitaemia profile during the acute phase” value [12, 22] was “better activity profile compared to that of BZN”. For the same compound, the “ALP (liver marker)” value [13, 23] was “+ (+/-, 10-20% increase/decrease over the range)”, the “ALT/GPT (liver marker)” value [13, 23] was “++ (++/--, 20-30% increase/decrease over the range)” and the “AST/GOT (liver marker)” value [13, 23] was “++ (++/--, 20-30% increase/decrease over the range)”. For the same compound, the “CK-MB (heart marker)” value [13, 23] was “++++ (++++/----, ˃ 40% increase/decrease over the range)”, the “LDH (heart marker)” value [13, 23] was “+ (+/-, 10-20% increase/decrease over the range)” and the “Total bilirubin (liver marker)” value [13, 23] was “++ (++/--, 20-30% increase/decrease over the range)”. For the same compound, the “Urea (kidney marker)” value [13, 23] was “-- (++/--, 20-30% increase/decrease over the range)”, the “Uric acid (kidney marker)” value [13, 23] was “---- (++++/----, ˃ 40% increase/decrease over the range)” and the “ALP (liver marker)” value [13, 24] was “++ (++/--, 20-30% increase/decrease over the range)”. The “ALT/GPT (liver marker)” value [13, 24] was “++ (++/--, 20-30% increase/decrease over the range)”, the “AST/GOT (liver marker)” value [13, 24] was “= (=, variation ≤ 10%)” and the “CK-MB (heart marker)” value [13, 24] was “= (=, variation ≤ 10%)”. For the same compound, the “LDH (heart marker)” value [13, 24] was “= (=, variation ≤ 10%)”, the “Total bilirubin (liver marker)” value [13, 24] was “+ (+/-, 10-20% increase/decrease over the range)” and the “Urea (kidney marker)” value [13, 24] was “= (=, variation ≤ 10%)”. The “Uric acid (kidney marker)” value [13, 24] was “= (=, variation ≤ 10%)”, the “ALP (liver marker)” value [13, 25] was “= (=, variation ≤ 10%)” and the “ALT/GPT (liver marker)” value [13, 25] was “++ (++/--, 20-30% increase/decrease over the range)”. The “AST/GOT (liver marker)” value [13, 25] was “+++ (+++/---, 30-40% increase/decrease over the range)”, the “CK-MB (heart marker)” value [13, 25] was “+ (+/-, 10-20% increase/decrease over the range)” and the “LDH (heart marker)” value [13, 25] was “= (=, variation ≤ 10%)”. For the same compound, the “Total bilirubin (liver marker)” value [13, 25] was “+++ (+++/---, 30-40% increase/decrease over the range)”, the “Urea (kidney marker)” value [13, 25] was “--- (+++/---, 30-40% increase/decrease over the range)” and the “Uric acid (kidney marker)” value [13, 25] was “- (+/-, 10-20% increase/decrease over the range)”. For the same compound, the “ALP (liver marker)” value [13, 26] was “= (=, variation ≤ 10%)”, the “ALT/GPT (liver marker)” value [13, 26] was “= (=, variation ≤ 10%)” and the “AST/GOT (liver marker)” value [13, 26] was “= (=, variation ≤ 10%)”. The “CK-MB (heart marker)” value [13, 26] was “+ (+/-, 10-20% increase/decrease over the range)”, the “LDH (heart marker)” value [13, 26] was “= (=, variation ≤ 10%)” and the “Total bilirubin (liver marker)” value [13, 26] was “++ (++/--, 20-30% increase/decrease over the range)”. For the same compound, the “Urea (kidney marker)” value [13, 26] was “= (=, variation ≤ 10%)”, the “Uric acid (kidney marker)” value [13, 26] was “- (+/-, 10-20% increase/decrease over the range)” and the “inhibition of nucleic acid levels” value [14] was 47%. For the same compound, the IC50 [15] was 51.9 µM and the IC50 [16] was > 100 µM.
